From patent publication US20070149555A1, “Prophylatic and/or therapeutic agents for chronic musculoskeletal pain” (Kyowa Hakko Kogyo Co., Ltd, priority 2004, published 2007)

Experiments:
[1] = test system: hyperalgesia rats induced with an acidic physiological saline; test: Effect for pain relief in a hyperalgesia model of rat (acidic physiological saline-induced hyperalgesia, von Frey test); format: in vivo; details: male SD rats, orally administered 5 and 10 mg/kg, 0.5-3 hours after administration (FIG. 1)
Method: Test Example 1: Effect for Pain Relief in a Hyperalgesia Model of Rat
An acidic physiological saline-induced hyperalgesia model, which is known as a model of diseases accompanied by chronic musculoskeletal pain was made according to the method described in Muscle & Nerve 24, p. 37-46 (2001) with a slight modification.
In this test, male SD rats (Sprague-Dawley rats; 6 weeks of age at the start of the test) were employed. Under ether anesthesia, 100 μl of physiological saline adjusted to pH 4 with acetic acid was injected to the rat's right gastrocnemius muscle twice at an interval of 5 days. At 10th and 11th days from the 2nd injection, the following test was conducted. […] In this connection, the pain threshold of normal rats was approximately 11 g.
The above hyperalgesia rats induced with an acidic physiological saline were placed in a stainless steel cage (750width×210depth×170height in mm) and accommodated thereto for at least 20 minutes. Thereafter, the pain threshold (g) was determined prior to administration of the test compound (0 hour) and 0.5 hour, 1 hour, 1.5 hours, 2 hours and 3 hours after the administration. […]
Hyperalgesia was evaluated by the von Frey test, and the results were indicated by the thresholds (g). […] The pain threshold (g) was calculated according to the W. J. Dixon's up-down method (Annual Review of Pharmacology and Toxicology, 20, p. 441-462 (1980)).

[2] = test system: acidic physiological saline-induced hyperalgesia model; test: Preventive effect on development of hyperalgesia in a rat model (acidic physiological saline, von Frey test); format: in vivo; details: male SD rats, 3 mg/kg orally once daily for 10 days, measured on the day following the final administration (FIG. 2)
Method: Test Example 2: Preventive Effect on Development of Hyperalgesia in a Rat Model The following experiment was carried out according to the method as described in Test Example 1. In this test, male SD rats (Sprague-Dawley rats; 6 weeks of age at the start of the test) were employed as 10 rats for each treatment-group. Under ether anesthesia, 100 μl of physiological saline adjusted to pH 4 with acetic acid was injected to the rat's right gastrocnemius muscle twice at an interval of 5 days. Thirty minutes after the 2nd injection and once daily thereafter, a test compound or solvent was administered repeatedly at a volume of 5 ml/kg to the above rats for a total of 10 days. The test compound was used as a suspension in 0.5% MC aqueous solution and orally administered (a group treated with Test Compound), and in a group to which a solvent was administered 0.5% MC aqueous solution alone was orally administered (a group treated with Solvent). On the day following the final administration, the pain threshold (g) was measured in the same manner as the von Frey test as described in Test Example 1. The above rats were placed in a stainless steel cage (750width×210depth×170height in mm) and accommodated thereto for at least 20 minutes; after that the measurement was conducted. From the above results, the followings were elucidated.

Question: How did the “pain threshold in comparison with that of the group treated with Solvent” value [1] turn out when `CCn1c(=O)c2c(nc(/C=C/c3ccc(OC)c(OC)c3)n2C)n(CC)c1=O` [Compound 2] was run?
Answer: greatly increased

Question: And the “pain threshold (development of hyperalgesia)” value [2]?
Answer: no decrease
